Results: patent publication US20240239755A1, “SUBSTITUTED PYRIDAZINONES, SALTS OR N-OXIDES THEREOF AND THEIR USE AS HERBICIDALLY ACTIVE SUBSTANCES” (Bayer Aktiengesellschaft, priority 2021, published 2024)

Experiments:
Type in all cases: in vivo
Lolium rigidum (LOLRI) = assay: Herbicidal pre-emergence action, 1280 g/ha (Table A5); settings: visual grading after ca. 3 weeks vs untreated controls
Text: (§1) Seeds of mono- and dicotyledonous weed plants were sown in plastic pots (double sowings with one species of mono- and one species of dicotyledonous weed plants per pot), in sandy loam, and covered with soil. The compounds according to the invention, formulated in the form of wettable powders (WP) or as emulsifiable concentrates (EC), were applied to the surface of the covering soil as an aqueous suspension or as an emulsion, with the addition of 0.5% of an additive, at an application rate of 600 litres of water per hectare (converted). Following treatment, the pots were placed in a greenhouse and kept under optimum growth conditions for the test plants. The visual grading of the damage to the test plants was carried out after ca. 3 weeks in comparison to untreated controls (herbicidal effect in percent (%): 100% effect=plants have died, 0% effect=as control plants). Tables A1 to A11 below, show the effects of selected compounds of the general formula (I) according to Table 1 on various harmful plants and an application rate corresponding to 1280 g/ha obtained by the experimental procedure mentioned above.

[1] = tested on: Matricaria inodora (MATIN); assay: Herbicidal pre-emergence action, 1280 g/ha (Table A6); settings: visual grading after ca. 3 weeks vs untreated controls
Text: as §1

Stellaria media (STEME) [2] = assay: Herbicidal pre-emergence action, 1280 g/ha (Table A9); settings: visual grading after ca. 3 weeks vs untreated controls
Text: as §1

[3] = tested on: Abutilon theophrasti (ABUTH); assay: Herbicidal post-emergence action, 1280 g/ha (Table B1); settings: visual assessment after ca. 3 weeks vs untreated controls
Text: (§2) Seeds of mono- and dicotyledonous weed plants were sown in plastic pots (double sowings with one species of mono- and one species of dicotyledonous weed plants per pot), in sandy loam, covered with soil and grown under controlled growth conditions. 2 to 3 weeks after sowing, the test plants were sprayed in the single-leaf stage. The compounds according to the invention, formulated in the form of wettable powders (WP) or as emulsifiable concentrates (EC), were sprayed onto the green plant parts as an aqueous suspension or as an emulsion, with the addition of 0.5% of an additive, at an application rate of 600 litres of water per hectare (converted). The test plants were placed in the greenhouse for ca. 3 weeks under optimum growth conditions, and then the effect of the preparations was assessed visually in comparison with untreated controls (herbicidal effect in percent (%): 100% effect=plants have died, 0% effect=as control plants). Tables B1 to B11 below, show the effects of selected compounds of the general formula (I) according to Table 1 on various harmful plants using an application rate corresponding to 1280 g/ha obtained by the experimental procedure mentioned above.

[4] = tested on: Matricaria inodora (MATIN); assay: Herbicidal post-emergence action, 1280 g/ha (Table B6); settings: visual assessment after ca. 3 weeks vs untreated controls
Text: as §2

[5] = tested on: Amaranthus retroflexus (AMARE); assay: Herbicidal post-emergence action, 1280 g/ha, AMARE; settings: visual grading vs untreated controls
Text: as §2, with “plants).” for “plants). Tables B1 to B11 below, show the effects of selected compounds of the general formula (I) according to Table 1 on various harmful plants using an application rate corresponding to 1280 g/ha obtained by the experimental procedure mentioned above.”
(§3) Tables B1 to B11 below, show the effects of selected compounds of the general formula (I) according to Table 1 on various harmful plants using an application rate corresponding to 1280 g/ha obtained by the experimental procedure mentioned above.

Kochia scoparia (KCHSC) = assay: Herbicidal post-emergence action, 1280 g/ha (Table B4); settings: visual assessment after ca. 3 weeks vs untreated controls
Text: as §2

Stellaria media (STEME) [6] = assay: Herbicidal post-emergence action, 1280 g/ha (Table B9); settings: visual assessment after ca. 3 weeks vs untreated controls
Text: as §2

Veronica persica (VERPE) = assay: Herbicidal post-emergence action, 1280 g/ha, VERPE; settings: visual grading vs untreated controls
Text: as §2, with “plants).” for “plants). Tables B1 to B11 below, show the effects of selected compounds of the general formula (I) according to Table 1 on various harmful plants using an application rate corresponding to 1280 g/ha obtained by the experimental procedure mentioned above.”
as §3

[7] = tested on: Amaranthus retroflexus (AMARE); assay: Herbicidal post-emergence action, 320 g/ha, AMARE; settings: visual grading after ca. 3 weeks
Text: as §2, with “plants).” for “plants). Tables B1 to B11 below, show the effects of selected compounds of the general formula (I) according to Table 1 on various harmful plants using an application rate corresponding to 1280 g/ha obtained by the experimental procedure mentioned above.”
(§4) Tables D1 to D8 below, show the effects of selected compounds of the general formula (I) according to Table 1 on various harmful plants using an application rate corresponding to 320 g/ha obtained by the experimental procedure mentioned above.

Stellaria media (STEME) [8] = assay: Herbicidal pre-emergence action, 320 g/ha, STEME; settings: visual grading after ca. 3 weeks
Text: as §1, with “plants).” for “plants). Tables A1 to A11 below, show the effects of selected compounds of the general formula (I) according to Table 1 on various harmful plants and an application rate corresponding to 1280 g/ha obtained by the experimental procedure mentioned above.”
Tables C1 to C6 below, show the effects of selected compounds of the general formula (I) according to Table 1 on various harmful plants using an application rate corresponding to 320 g/ha obtained by the experimental procedure mentioned above.

Stellaria media (STEME) [9] = assay: Herbicidal post-emergence action, 320 g/ha, STEME; settings: visual grading after ca. 3 weeks
Text: as §2, with “plants).” for “plants). Tables B1 to B11 below, show the effects of selected compounds of the general formula (I) according to Table 1 on various harmful plants using an application rate corresponding to 1280 g/ha obtained by the experimental procedure mentioned above.”
as §4

[10] = tested on: Amaranthus retroflexus (AMARE); assay: Herbicidal pre-emergence action, 1280 g/ha (Table A11); settings: visual grading after ca. 3 weeks vs untreated controls
Text: as §1

[11] = tested on: Abutilon theophrasti (ABUTH); assay: Herbicidal post-emergence action, 320 g/ha, ABUTH; settings: visual grading after ca. 3 weeks
Text: as §2, with “plants).” for “plants). Tables B1 to B11 below, show the effects of selected compounds of the general formula (I) according to Table 1 on various harmful plants using an application rate corresponding to 1280 g/ha obtained by the experimental procedure mentioned above.”
as §4

| Compound | herbicidal effect LOLRI (Lolium rigidum (LOLRI)) [%] | herbicidal effect MATIN [1] [%] | herbicidal effect STEME (Stellaria media (STEME) [2]) [%] | herbicidal effect ABUTH [3] [%] | herbicidal effect MATIN [4] [%] | herbicidal effect AMARE [5] [%] | herbicidal effect STEME (Stellaria media (STEME) [6]) [%] | herbicidal effect AMARE [10] [%] | other results |
| --- | --- | --- | --- | --- | --- | --- | --- | --- | --- |
| Cc1nn(C)c(=O)c(Oc2cc(F)ccc2Br)c1OC(=O)C(C)C [Example I-089] | 90 | 100 | 90 | 90 | 90 | 100 |  |  |  |
| Cc1nn(C)c(=O)c(Oc2c(F)cccc2C2CC2)c1O [Example I-084] | 90 |  |  | 90 |  | 90 | 90 |  | herbicidal effect KCHSC (Kochia scoparia (KCHSC)): 90%; herbicidal effect VERPE (Veronica persica (VERPE)): 90%; herbicidal effect AMARE [7]: 90% |
| CCOC(=O)Oc1c(C)nn(C)c(=O)c1Oc1cc(C)ccc1C1CC1 [Example I-040] |  |  |  |  |  | 90 |  |  |  |
| Cc1nn(C)c(=O)c(Oc2cc(Cl)cc(Cl)c2Cl)c1OC(=O)C(C)C [Example I-100] | 90 |  | 100 | 90 |  | 90 | 100 |  | herbicidal effect STEME (Stellaria media (STEME) [8]): 100%; herbicidal effect STEME (Stellaria media (STEME) [9]): 90% |
| COc1ccccc1Oc1c(O)c(C)nn(C)c1=O [Example I-024] | 90 |  | 90 |  |  | 90 | 90 |  | herbicidal effect VERPE (Veronica persica (VERPE)): 90% |
| Cc1nn(C)c(=O)c(Oc2cccc(C(F)(F)F)c2)c1O [Example I-005] |  |  |  |  |  | 100 | 90 | 100 | herbicidal effect AMARE [7]: 90% |
| Cc1nn(C)c(=O)c(Oc2ccccc2OC(F)F)c1O [Example I-082] | 90 | 90 | 90 | 100 | 90 | 90 | 100 |  | herbicidal effect VERPE (Veronica persica (VERPE)): 90%; herbicidal effect ABUTH [11]: 90%; herbicidal effect STEME (Stellaria media (STEME) [9]): 90% |
| CCOC(=O)Oc1c(C)nn(C)c(=O)c1Oc1cccc(C)c1C1CC1 [Example I-066] |  | 90 |  | 90 | 90 |  | 100 | 100 |  |
| Cc1ccc(C2CC2)c(Oc2c(O)c(C)nn(C)c2=O)c1 [Example I-039] |  |  |  |  |  | 90 | 90 | 90 |  |
| Cc1nn(C)c(=O)c(Oc2ccccc2)c1O [Example I-001] |  |  |  |  |  |  |  | 90 |  |
| Cc1ccc(Oc2c(O)c(C)nn(C)c2=O)c(C2CC2)c1 [Example I-037] |  |  |  |  |  |  | 90 |  |  |
| Cc1nn(C)c(=O)c(Oc2cc(F)cc(F)c2Br)c1O [Example I-090] | 90 | 90 | 100 |  | 90 | 90 | 90 | 90 | herbicidal effect STEME (Stellaria media (STEME) [8]): 90% |
| Cc1nn(C)c(=O)c(Oc2cccc(F)c2Cl)c1O [Example I-025] |  | 100 | 100 |  |  |  |  |  | herbicidal effect STEME (Stellaria media (STEME) [8]): 100% |
| CCOC(=O)Oc1c(C)nn(C)c(=O)c1Oc1ccc(C)cc1C1CC1 [Example I-038] |  |  |  | 90 |  | 90 |  |  |  |
| Cc1cccc(Cl)c1Oc1c(O)c(C)nn(C)c1=O [Example I-023] |  | 90 | 90 |  |  | 90 | 90 | 90 |  |
| Cc1nn(C)c(=O)c(Oc2cc(F)cc(F)c2Br)c1OC(=O)C(C)C [Example I-099] |  | 90 | 90 | 100 | 90 | 90 | 90 |  | herbicidal effect KCHSC (Kochia scoparia (KCHSC)): 90%; herbicidal effect VERPE (Veronica persica (VERPE)): 90%; herbicidal effect STEME (Stellaria media (STEME) [8]): 90%; herbicidal effect STEME (Stellaria media (STEME) [9]): 90% |
